According to US7408022B2, “Composition and method for increasing apoptosis in cancer cells” (Celtek Bioscience, LLC, priority 2004, dated 2008):
One block for each molecule: values may come before it. Peptide text beside a SMILES is read from it.

How the values were obtained:
[1] = test system: LNCaP cells; test: In vitro cytotoxicity assay (MTS); assay type: cell-based, Human; conditions: 24 h at 37° C.
Experimental: (§1) LNCaP, DU145, PC3, or neuroblastoma N2a cells were grown in 96-well plates to a confluence of 60%. The treatments with different concentrations of peptide were performs in quadruplicates in a total volume of 100 μl in RPMI without serum for 24 h at 37° C. The cells were then washed and incubated at 37° C. with 100 μl phenol-red free RPMI containing 20 μl of the CellTiter 96 AQueous Solution reagent (Promega, Madison, Wis.) for 1 h. The absorbency in each well was recorded at 490 nm using a Microplate Autoreader EL 309 (Bio-Tek Instruments, Winooski, Vt.). The absorbency reflects directly the number of viable cells. Blanks were subtracted from all data. The data were then analyzed using Prism software (GraphPad Software Inc., San Diego, Calif.) and expressed as a mean ±SE of three independent experiments. Statistical significance was performed by one way ANOVA and consider significant if p<0.05.

[2] = test system: DU145 cells; test: In vitro cytotoxicity assay (MTS); assay type: cell-based, Human; conditions: DU145, 30 μM, 24 h
Experimental: as §1

[3] = test system: PC3 cells; test: In vitro cytotoxicity assay (MTS); assay type: cell-based, Human; conditions: PC3, 30 μM, 24 h
Experimental: as §1

[4] = test system: neuroblastoma N2a cells; test: In vitro cytotoxicity assay (MTS); assay type: cell-based; conditions: 24 h at 37° C.
Experimental: as §1

[5] = Quantitative indirect immunofluorescence assay of peptide cellular import (96-well plates); assay type: cell-based; conditions: from time-dependent fluorescence accumulation, 1-20 h
Excerpt: This indirect immunofluoresence assay was also utilized to quantitate peptide cellular import. Briefly, cells grown in 96-well plates will be treated with peptides for different time periods, and then subjected to an indirect immunofluorescence assay using anti-peptide antibody and FITC-labeled anti-rabbit antibody as described above. Cells were then lysed with 10% SDS and the fluorescence in the soluble cell solutions was quantified by a Cytofluor™ 2300 reader (Millipore) at 485/560 nm. The fluorescence readings were calculated by subtracting […] of peptide-untreated sample. The data were expressed as mean ±SEM of three independent experiments performed in quintuplicate samples. The kinetics of imported CB5005 peptide (SEQ ID NO: 4) was studied by using this quantitative.

[6] = test system: DU145 cells; test: Annexin V/PI fluorescence microscopy apoptosis assay; assay type: cell-based, Human; conditions: cisplatin 5 μg/ml alone, 5 h
Experimental: DU145 cells were grown on 4-well chamber slides to a confluence of 70-80%. Cells were then treated with CB5005 peptide (SEQ ID NO: 4) (30 μM) or diluent for 30 min at 37° C. followed by cisplatin (5 μg/ml) for an additional 5 h. […] The chamber slides were mounted in Poly/mount (Polysciences, Warrington, Pa.) and analyzed with a fluorescence microscope (Microstar IV, Reichard, Buffalo, N.Y.) using ×100 oil immersion lens. The color images were analyzed by a Pixera digital camera and stored in JPG format.

[7] = test system: DU145 cells; test: Flow cytometric analysis of annexin V/PI stained cells; assay type: cell-based, Human; conditions: for induction of apoptosis by co-treatment with cisplatin (flow cytometry): CB5005 30 μM, CB5003 72 μM, CB5002 72 μM, cisplatin 5 μg/ml
Experimental: PCA cells were grown on 60-mm dishes to a confluence of 50-60%. These cells were incubated with different concentrations of peptides for 30 min at 37° C. followed by the treatment with TNF-α (10 ng/ml), cisplatin (2-30 μg/ml), etoposide (2-20 μg/ml) or diluent for an additional 21 h at 37° C. Phosphatidylserine exposure on apoptotic cells was measured by their ability to bind Annexin V. Specifically, cells were harvested by trypsinization. The trypsinized cells, media and PBS washes were combined and cells collected by centrifugation. […] Stained cells were analyzed by flow cytometry. A minimum 20,000 events for each sample was measured.

[8] = test system: DU145 cells; test: Indirect immunofluorescence assay for peptide cellular import; assay type: cell-based, Human; conditions: different concentrations of peptides, 1 h at 37° C.
Experimental: DU145 cells were grown on 8-well chamber slides (Nunc, Naperville, Ill.) to a confluence of 80%. These cells were then incubated with diluent or different concentrations of peptides in RPMI without serum for 1 h at 37° C. The cells were washed three times with cold PBS to remove the extracellular peptides and then fixed with 3.5% paraformaldehyde solution in PBS at 4° C. for 20 min. The fixed cells were washed three times with cold PBS and treated with 0.25% Triton X-100 for 10 min. The washed cells were then incubated with anti-peptide IgG in PBS for 1 h. After three 5 min washings with PBS, the intracellular peptides (via peptide-antibody complexes) were subsequently detected with FITC-labeled goat anti-rabbit IgG (Pierce, Rockford, Ill.) after 1 h incubation. Cover slips with stained cells were mounted in Poly/Mount (Polysciences, Warrington, Pa.) and analyzed with Microstar IV (Reichard, Buffalo, N.Y.) using a 100× oil immersion lens. The color images were analyzed using a Pixera digital camera and stored in JPG format. The same assay was also utilized for determining peptide cellular import in other cell lines, including PC3, LNCaP, and neuroblastoma N2a cells.

[9] = test system: DU145 cells; test: TUNEL assay; assay type: cell-based, Human; conditions: peptide 30 min, then cisplatin 5 μg/ml 16 h; CB5003 40 μM, CB5002 72 μM, CB5007 30 μM
Experimental: DU145 cells were grown on 8-well chamber slides to a confluence of 70-80%. The cells were then incubated with different concentrations of peptides or diluent for 30 min at 37° C. followed by the treatment with cisplatin (5 μg/ml) or diluent for an additional 16 h. The cells were air-dried and fixed in 4% paraformaldehyde at room temperature for 1 h. The cells were then washed with PBS and permeabilized with permeabilization solution (0.1% Triton X-100 in 0.1% sodium citrate) for 2 min on ice. Apoptosis was detected using TUNEL method “in situ cell death detection POD” according to the manufacturer's instructions (Roche, Indianapolis, Ind.). The fluorescein-labeled DNA strand breaks due to apoptosis were visualized under light microscope (Microstar IV, Reichard, Buffalo, N.Y.) by using anti-fluorescein antibody conjugated POD (peroxidase) at ×40 magnification. The images were analyzed using a Pixera digital camera.

[10] = test system: NF-κB nuclear translocation in LNCaP cells; test: Western blot analysis of NF-κB p50 protein in nuclear extracts; assay type: cell-based, Human; conditions: peptide 30 min, then TNF-α 10 ng/ml 1 h
Experimental: (§2) PCA cells were grown on 60-mm dishes to a confluence of 70-80%. The cells were incubated with different concentrations of peptides for 30 min at 37° C., followed by treatment with TNF-α (10 ng/ml) for an additional 1 h at 37° C., as indicated, or incubated with peptide alone for 16 hours. After the treatment, cells were washed with ice-cold PBS and lysed in 500 μl of buffer A (10 mM HEPES, pH 7.9, 10 mM KCl, 0.1 mM EDTA, 0.1 mM EGTA, 0.4% Nonidet P-40, 1 mM DTT, 0.5 mM PMSF and 1 μg/ml each of leupeptin, aprotinin, pepstatin, chymostatin and antipain) on ice for 10 min. Nuclei were pelleted by centrifugation at high speed and washed with 500 μl of buffer A. Nuclei were then resuspended in 40 μl of buffer B (20 mM HEPES, pH 7.9, 400 mM NaCl, 1 mM EDTA, 1 mM EGTA, 1 mM DTT, 1 mM PMSF and 1 μg/ml each of leupeptin, aprotinin, pepstatin, chymostatin and antipain). The protein concentration of nuclear extract was determined using Pierce BCA protein assay and equalized among samples using buffer B.
(§3) Equal amounts of proteins were heat-treated in 2×SDS sample loading buffer at 100° C. for 5 minutes and fractionated by 10% SDS polyacrylamide electrophoresis. The proteins were transferred to nitrocellulose paper. After blocking with 5% nonfat milk in TBS (10 mM Tris-HCl, pH 7.6, 70 mM NaCl and 0.05% Tween 20) for 30 minutes, nuclear NFκB p50 was detected by using an anti-p50 IgG antibody (1:5000), (Upstate, Lake Placid, N.Y.). The primary antibody was visualized with horseradish peroxidase-coupled secondary antibody by using ECL western blotting system as described in manufacturer's protocol (Pierce, Rockford, Ill.).

[11] = test system: NF-κB nuclear translocation in DU145 cells; test: as above; assay type: cell-based, Human; conditions: CB5005 30 μM, CB5003 90 μM, CB5007 30 μM for 30 min, then TNF-α 10 ng/ml 1 h
Experimental: as §2, §3

- stability in intracellular compartments [5]: relatively stability
Molecule: CSCC[C@H](NC(=O)[C@H](CC(C)C)NC(=O)[C@H](CCCCN)NC(=O)[C@H](CCC(N)=O)NC(=O)[C@H](CCCNC(=N)N)NC(=O)[C@H](CCCCN)NC(=O)[C@H](CCCNC(=N)N)NC(=O)[C@H](CCC(N)=O)NC(=O)[C@@H](NC(=O)[C@H](C)NC(=O)[C@H](CC(C)C)NC(=O)[C@H](C)NC(=O)[C@H](CC(C)C)NC(=O)[C@H](C)NC(=O)[C@H](CC(C)C)NC(=O)[C@H](C)NC(=O)[C@H](CC(C)C)NC(=O)[C@H](CCCCN)NC(=O)[C@H](CC(C)C)NC(=O)[C@@H](N)CCCCN)C(C)C)C(=O)N1CCC[C@H]1C(=O)O [CB5005] (H-KLKLALALALAVQRKRQKLMP-OH; N-terminus and C-terminus assumed)
- cytotoxicity (MTS) [1]: not toxic
- cytotoxicity (MTS), peptide-untreated vs treated samples [2]: Statistical significance (p<0.05)
- cytotoxicity (MTS), peptide-untreated vs treated samples [3]: Statistical significance (p<0.05)
- cytotoxicity (MTS) [4]: did not result in toxicity

Molecule: N.N.[Cl][Pt][Cl] [cisplatin, reference compound]
- induction of apoptosis (annexin V-FITC staining) [6]: ineffective
- induction of apoptosis (flow cytometry) ([7]; cisplatin 5 μg/ml alone, 21 h): ineffective

Molecule: CB5002: control peptide with a mutant, non-functional CPS located N-terminal to the NLS (LALLAPVQRKRQKLMP)
- cellular import activity [8]: not active
- sensitizing activity to cisplatin-induced apoptosis (TUNEL) [9]: not
- induction of apoptosis by co-treatment with cisplatin (flow cytometry) ([7]; 21 h): did not show significant effect

Molecule: CB5003: analogous peptide possessing only a portion of the CPS (SEQ ID NO: 1) N-terminal to the NF-κB p50 NLS (LALALAVQRKRQKLMP)
- TNF-α-induced NF-κB nuclear translocation [10]: inhibited
- TNF-α-induced NF-κB nuclear translocation [11]: inhibited
- cellular import activity [8]: much weaker import activity
- sensitizing activity to cisplatin-induced apoptosis (TUNEL) [9]: active, although at a much lower level
- induction of apoptosis by co-treatment with cisplatin (flow cytometry) ([7]; 21 h): active but to a much less extent
- synergistic activity in enhancing the apoptosis induced by cisplatin (dependence on concentration) ([7]; DU145, flow cytometry): concentration-dependent

Molecule: CB5007: control peptide corresponding to CB5005 except that two basic residues in the NF-kB p50 NLS are mutated (KR-NG) (KLKLALALALAVQRNGQKLMP)
- TNF-α-induced NF-κB nuclear translocation [10]: did not have an inhibitory effect
- TNF-α-induced NF-κB nuclear translocation [11]: did not have an inhibitory effect
- sensitizing activity to cisplatin-induced apoptosis (TUNEL) [9]: not
